From ChEMBL document CHEMBL1201862, “PubChem BioAssay data set” (2004)
Calls of active or inactive are those of the source. Cut-off read from the data, not from the text of the source, for most assays here: actives have a measured IC50 and inactives only a lower limit.

Legend:
[1] = target: T1, Sentrin-specific protease 6 (Homo sapiens, UniProt Q9GZR1); assay: SAR Analysis of small molecule inhibitors of Sentrin-specific protease 6 (SENP6) using a Luminescent assay. [Related pubchem assays (depositor defined):AID2582, AID2599]; assay type: functional
T1 sequence (Q9GZR1 whole entry): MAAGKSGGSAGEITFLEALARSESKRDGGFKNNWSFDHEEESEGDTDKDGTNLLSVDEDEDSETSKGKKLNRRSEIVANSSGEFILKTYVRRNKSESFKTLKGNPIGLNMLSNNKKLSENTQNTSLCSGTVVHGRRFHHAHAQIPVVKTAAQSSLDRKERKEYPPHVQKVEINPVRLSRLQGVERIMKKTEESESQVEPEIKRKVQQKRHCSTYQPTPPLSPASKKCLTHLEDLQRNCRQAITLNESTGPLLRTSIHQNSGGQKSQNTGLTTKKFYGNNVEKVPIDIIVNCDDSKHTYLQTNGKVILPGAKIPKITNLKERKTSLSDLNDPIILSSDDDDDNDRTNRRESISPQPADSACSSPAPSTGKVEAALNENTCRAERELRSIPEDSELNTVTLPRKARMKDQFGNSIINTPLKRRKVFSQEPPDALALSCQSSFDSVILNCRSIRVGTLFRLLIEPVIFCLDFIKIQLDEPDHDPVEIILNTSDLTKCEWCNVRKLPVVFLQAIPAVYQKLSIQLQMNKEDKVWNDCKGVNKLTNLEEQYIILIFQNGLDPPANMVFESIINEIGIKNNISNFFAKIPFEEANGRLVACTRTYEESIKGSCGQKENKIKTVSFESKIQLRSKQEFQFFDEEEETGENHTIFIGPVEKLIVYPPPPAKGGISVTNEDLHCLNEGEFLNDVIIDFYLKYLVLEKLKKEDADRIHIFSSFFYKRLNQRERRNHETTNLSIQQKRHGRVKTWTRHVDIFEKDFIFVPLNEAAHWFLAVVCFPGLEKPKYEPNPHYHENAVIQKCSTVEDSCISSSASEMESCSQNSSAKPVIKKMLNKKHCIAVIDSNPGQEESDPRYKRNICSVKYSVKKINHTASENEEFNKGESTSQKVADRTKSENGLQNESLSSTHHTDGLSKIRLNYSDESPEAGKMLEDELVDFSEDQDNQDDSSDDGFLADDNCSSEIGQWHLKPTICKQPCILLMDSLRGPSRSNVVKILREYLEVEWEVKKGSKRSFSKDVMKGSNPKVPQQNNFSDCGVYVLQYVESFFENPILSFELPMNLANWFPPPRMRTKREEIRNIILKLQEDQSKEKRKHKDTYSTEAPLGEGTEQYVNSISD

[2] = target: T2, Sentrin-specific protease 7 (Homo sapiens, UniProt Q9BQF6); assay: SENP7 protease inhibitors, SAR follow-up, biochemical, luminescence (AID 504497); assay type: functional
T2 sequence (Q9BQF6 whole entry): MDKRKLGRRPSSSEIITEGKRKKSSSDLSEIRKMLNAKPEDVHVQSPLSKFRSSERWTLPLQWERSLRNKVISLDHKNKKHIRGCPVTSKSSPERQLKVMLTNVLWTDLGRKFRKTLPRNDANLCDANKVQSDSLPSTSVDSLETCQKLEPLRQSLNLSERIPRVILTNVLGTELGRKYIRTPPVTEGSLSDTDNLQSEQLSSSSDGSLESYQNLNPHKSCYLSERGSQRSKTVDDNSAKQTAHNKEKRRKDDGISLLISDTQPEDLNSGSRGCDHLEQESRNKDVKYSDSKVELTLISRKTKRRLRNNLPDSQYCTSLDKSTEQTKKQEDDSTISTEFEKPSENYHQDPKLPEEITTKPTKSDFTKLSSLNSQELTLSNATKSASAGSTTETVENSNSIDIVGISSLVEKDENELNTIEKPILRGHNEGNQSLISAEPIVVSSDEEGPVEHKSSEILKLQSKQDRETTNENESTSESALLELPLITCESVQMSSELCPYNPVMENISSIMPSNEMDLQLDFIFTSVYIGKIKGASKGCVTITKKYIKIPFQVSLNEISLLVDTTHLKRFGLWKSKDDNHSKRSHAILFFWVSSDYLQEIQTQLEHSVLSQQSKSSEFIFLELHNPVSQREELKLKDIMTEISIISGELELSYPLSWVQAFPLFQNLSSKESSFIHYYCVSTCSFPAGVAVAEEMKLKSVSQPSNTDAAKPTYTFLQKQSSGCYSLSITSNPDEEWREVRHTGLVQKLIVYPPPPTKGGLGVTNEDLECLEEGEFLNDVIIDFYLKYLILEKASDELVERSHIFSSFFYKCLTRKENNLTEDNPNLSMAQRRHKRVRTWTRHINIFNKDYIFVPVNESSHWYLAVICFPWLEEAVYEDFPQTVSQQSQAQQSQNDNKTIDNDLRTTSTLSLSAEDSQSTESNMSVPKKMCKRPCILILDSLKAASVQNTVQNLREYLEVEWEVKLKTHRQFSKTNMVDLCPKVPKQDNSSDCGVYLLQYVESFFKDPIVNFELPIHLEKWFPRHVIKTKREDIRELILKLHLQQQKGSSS

[3] = target: T3, Sentrin-specific protease 8 (Homo sapiens, UniProt Q96LD8); assay: SENP8 protease inhibitors, SAR follow-up, biochemical, luminescence, set 2 (AID 588601); assay type: functional
T3 sequence (Q96LD8 whole entry): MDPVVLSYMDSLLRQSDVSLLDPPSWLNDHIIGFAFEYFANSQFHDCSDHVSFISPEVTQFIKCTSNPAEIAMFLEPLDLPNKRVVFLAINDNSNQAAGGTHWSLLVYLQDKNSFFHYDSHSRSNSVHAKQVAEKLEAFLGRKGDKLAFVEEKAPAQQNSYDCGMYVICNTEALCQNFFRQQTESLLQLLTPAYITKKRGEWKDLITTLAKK

Caspase-3 [4] = target: T4, Caspase-3 (Homo sapiens, UniProt P42574); assay: SAR Analysis of small molecule inhibitors of Sentrin-specific proteases (SENPs) using a Caspase-3 Selectivity assay. [Related pubchem assays (depositor defined):AID2540, AID2599, AID434973, AID489001]; assay type: functional
T4 sequence (P42574 whole entry): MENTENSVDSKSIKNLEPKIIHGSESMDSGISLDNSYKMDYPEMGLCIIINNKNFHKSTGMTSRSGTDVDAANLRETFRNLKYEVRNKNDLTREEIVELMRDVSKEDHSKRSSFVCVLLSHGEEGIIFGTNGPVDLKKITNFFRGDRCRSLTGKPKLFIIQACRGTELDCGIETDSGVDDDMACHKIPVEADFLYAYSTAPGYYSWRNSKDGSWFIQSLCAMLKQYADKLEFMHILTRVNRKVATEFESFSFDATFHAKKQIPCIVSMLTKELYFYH

[5] = target: T1, Sentrin-specific protease 6; assay: SENP6 protease inhibitors, SAR follow-up, biochemical, luminescence, set 2 (AID 588598); assay type: functional
[6] = target: T2, Sentrin-specific protease 7; assay: SENP7 protease inhibitors, SAR follow-up, biochemical, luminescence, set 2 (AID 588600); assay type: functional
Caspase-3 [7] = target: T4, Caspase-3; assay: caspase-3 inhibitors as off-family protease, SAR follow-up, selectivity assay for SENP protease inhibitor project, biochemical, luminescence, set 2 (AID 588599); assay type: functional
[8] = target: T3, Sentrin-specific protease 8; assay: SENP8 protease inhibitors, SAR follow-up, biochemical, luminescence (AID 504501); assay type: functional
[9] = target: Latent membrane protein 1 (Human herpesvirus 4 (strain B95-8), UniProt P03230); assay: TES1-eGFP NF-kB reporter inhibition versus Tet-On dsRED, dose response, selectivity assay for LMP1 NF-kB inhibitor project, imaging, HEK293T, dual-color eGFP/dsRED, cherry-picks (AID 588398); assay type: functional, cell-based
Latent membrane protein 1, sequence (P03230 whole entry): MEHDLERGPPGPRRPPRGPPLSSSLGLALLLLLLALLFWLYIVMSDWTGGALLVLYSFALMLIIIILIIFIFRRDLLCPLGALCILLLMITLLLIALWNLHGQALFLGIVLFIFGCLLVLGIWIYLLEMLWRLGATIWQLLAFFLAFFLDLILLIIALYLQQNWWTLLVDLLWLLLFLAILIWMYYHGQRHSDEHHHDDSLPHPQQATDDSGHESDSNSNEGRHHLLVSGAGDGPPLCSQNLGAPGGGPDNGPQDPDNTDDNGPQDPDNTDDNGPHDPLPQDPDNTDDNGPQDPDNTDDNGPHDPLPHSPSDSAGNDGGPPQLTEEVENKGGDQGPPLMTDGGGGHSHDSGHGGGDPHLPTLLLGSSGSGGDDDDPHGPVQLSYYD

O=C(Nc1nc2ccc(Cl)cc2s1)c1nccs1
active: IC50 [1] 3.2 µM | IC50 [2] 2.5 µM | IC50 [3] 2.38 µM | IC50 (Caspase-3 [4]) 2.4 µM | IC50 [5] 2.89 µM | IC50 [6] 2.9 µM | IC50 (Caspase-3 [7]) 1.98 µM | IC50 [8] 3.5 µM

O=C1N[C@@H](Cc2c[nH]c3ccccc23)COC(=O)[C@H](Cc2ccc(F)cc2)C/C=C\C[C@H]1CC(=O)N(CCO)Cc1ccccc1
active: AC50 [9] 30.1 µM
